From patent US9173898B2, “Methods of treating giardiasis” (THE UNITED STATES OF AMERICA, as represented by the …, priority 2010, dated 2015)
Converted amounts (≈) assume the structure as drawn. Structures can show the parent of a compound that is named as a salt.

Experiments:
Giardia WB = assay: Giardia viability (ATP content) assay in 1536-well format; type: cell-based, Giardia lamblia; conditions: for Emax: 48 h, read-out: Giardia WB Efficacy; for IC50: concentration at which 50% of DMSO control ATP levels are detected, 48 hours, 1536-well
Description: (§1) For the viability assay in 1536-well format, 2 μL media was dispensed per well into 1536-well white solid-bottom plates using a Multidrop Combi dispenser (Thermo Scientific). Subsequently, 23 nL/well compound solutions or DMSO controls were dispensed to the assay plates containing media via a pintool workstation (Kalypsys, San Diego). Trophozoites were chilled on ice to detach from glass tubes, and unless otherwise noted, were diluted to 250,000 trophozoites/mL with ice cold media. The trophozoite suspension was kept on ice and dispensed as 4 μL/well with the Multidrop Combi dispenser. Attachment of trophozoites to dispensing apparatus was avoided with continuous dispensing and icing of the trophozoite suspension. The plates were covered with plastic low-evaporation lids, individually sealed in Type A Bio-Bags and incubated at 37° C. for 48 hours. Following incubation, 4 μL/well of ATPLite reagent was dispensed with the Multidrop Combi dispenser. The assay plates were briefly centrifuged at 1000 RPM and luminescence signal was detected on a ViewLux plate reader (PerkinElmer) after 20 min incubation at room temperature. Signal-to-basal (S/B) ratio, Z′ factor and coefficient of variation (CV) were calculated from 32 wells with 0.38% DMSO (total signal) and 32 well with 38.3 μM Mnz (basal signal).
Assay miniaturization in 1,536-well plate format was undertaken to increase throughput and facilitate screening of large compound libraries. The volume of trophozoites suspension was reduced to 6 μL/well and the ATP detection reagent was reduced to 4 μL/well in the 1536-well assay plates. […] The 100 trophozoites/well density was selected for further experiments to reduce the preparation work of Giardia cultures. Following these conditions, a DMSO test plate was used to assess the statistical parameters of the assay in the 1,536-well plate format.
Using the above established conditions in 1536-well format, each compound of the invention was tested at 5 concentration points, ranging from 61 nM-38.3 μM in a 1:5 dilution ratio (Inglese, J., D. S. Auld, A. Jadhav, R. L. Johnson, A. Simeonov, A. Yasgar, W. Zheng, and C. P. Austin. 2006. Quantitative high-throughput screening: a titration-based approach that efficiently identifies biological activities in large chemical libraries. Proc Natl Acad Sci USA 103:11473-8).

CHO cells [1] = assay: CHO cell cytotoxicity assay in 1536-well format (ATP content counter-screen); type: cell-based, Chinese hamster; conditions: concentration at which 50% of DMSO control ATP levels are detected, 48 hours
Description: For the viability assay in 1536-well format, 2 μL media was dispensed per well into 1536-well white solid-bottom plates using Multidrop Combi dispenser. Subsequently, 23 nL/well compound solutions or DMSO controls were dispensed to the assay plates via a pintool workstation. The Chinese hamster ovary (CHO) cells were grown in T225 flasks to 70% confluence under a standard cell culture condition (ATCC), detached with 0.25% Trypsin/EDTA, and seeded at 250 cells/well in 4 μL media (Dulbecco's Modified Eagle Medium, 10% fetal bovine serum, 1× penicillin/streptomycin). The plates were incubated at 37° C. with 5% CO2 and 95% humidity for 48 hours. Subsequently, ATP content was measured following the addition of 4 μL/well of ATPLite reagent and a 20 min incubation on a ViewLux plate reader.
Data from the CHO cell counter-screen underwent the same initial analysis, with the exception that raw luminescence counts were normalized relative to DMSO only wells (0% activity) and 38.3 μM camptothecin treated wells (100% activity).
CHO cells, commonly used in high throughput compound screening, were selected to determine the cytotoxicity of the compounds towards a mammalian cell line.

[2] = system: Giardia lamblia GS isolate; assay: Minimum Lethal Concentration (MLC) determination; type: cell-based; conditions: Giardia duodenalis, 72 h; 3 days with compound, then 3 days regrowth without compound; tube without any live organisms
Description: Giardia lamblia GS isolate was used throughout the Minimal Lethal Concentration (MLC) experiments. Organisms were grown and maintained in TYI-S-33 medium supplemented with bile and antibiotics (Keister, 1983). Cidal activity was determined in 96-well culture plates (Corning Incorporated) followed by Giardia trophozoites regrowth in 8 ml tubes (Fisher Scientific). Dry compounds were dissolved in DMSO (Sigma) at stock concentration of 10 mM and then added to the growth media to ensure final DMSO concentration of no more than 0.5%. 100 μl of the compound solutions were placed in the wells by serial dilutions. 10 μl of Giardia trophozoites containing 10000 organisms were then added. Serial dilutions of metronidazole served as the positive control and the DMSO-containing medium served as the negative control. Plates were incubated under anaerobic conditions in sealed bags (Becton Dickinson and Company) at 37° C. for 3 days and surveyed visually under microscope to check survival, mobility and attachment of trophozoites. The plate was chilled on ice for 30 min and the entire contents of 4 wells in the growth/death transition were transferred into the 8 ml tubes containing growth media only (without the compound). After 3 days of incubation at 37° C., tubes were checked under microscope for any surviving trophozoites. MLC was attributed to the tube without any live organisms. See, e.g., Keister, D. B. 1983. Axenic culture of Giardia lamblia in TYI-S-33 medium supplemented with bile. Trans. Soc. Trop. Med. Hyg. 77:487-488.

CHO cells [3] = assay: CHO cell cytotoxicity assay in 1536-well format (ATP content counter-screen); type: cell-based, Chinese hamster; conditions: for Emax: Cricetulus griseus, CHO, 48 h, percent reduction in ATP levels compared with 38.3 µM camptothecin at maximal compound concentration, read-out: CHO Efficacy
G. lamblia GS isolate = assay: ATP content assay against G. lamblia GS isolate; type: cell-based, Giardia lamblia; conditions: Giardia duodenalis; Table 2, screen; read-out: Giardia GS IC50
Description: as §1
As a further confirmatory step, some compounds that were commercially available were purchased as powder samples and tested against the G. lamblia GS isolate using both the ATP content and enumeration assays (Table 3).

[4] = Giardia, percent reduction in ATP levels compared with 38.3 mM Mnz at maximal compound concentration

Work on `C=CCNC1=C2C[C@@H](C)C[C@H](OC)[C@H](O)[C@@H](C)/C=C(\C)[C@H](OC(N)=O)[C@@H](OC)/C=C\C=C(/C)C(=O)NC(=CC1=O)C2=O` [17-Allylamino geldanamycin] yielded an Emax (Giardia WB; [4]) of 95.6%, an IC50 (Giardia WB; Giardia) of 81.9 nM and an IC50 (CHO cells [1]; Cricetulus griseus, CHO) of 520 nM. For the same molecule, the MBC [2] was 13.9 µM (≈ 8.14 µg/mL) and the Emax (CHO cells [3]) was 86.9%.
For `N[C@H](C(=O)O)[C@@H]1CC(Cl)=NO1` [Acivicin], the Emax (Giardia WB; [4]) was 85.9%, the IC50 (Giardia WB; Giardia) was 170 nM and the IC50 (CHO cells [1]; Cricetulus griseus, CHO) was 27400 nM. It also gave an Emax (CHO cells [3]) of 52.5%.
Molecule `CC(C)C[C@H](NC(=O)[C@H](Cc1ccccc1)NC(=O)c1cnccn1)B(O)O` [Bortezomib (S,S), Bortezomib] has an Emax (Giardia WB; [4]) of 94.4%, an IC50 (Giardia WB; Giardia) of 110 nM and an IC50 (CHO cells [1]; Cricetulus griseus, CHO) of 20 nM. For the same molecule, the Emax (CHO cells [3]) was 48.2%.
For `NC(=O)c1cc(N2CC2)c([N+](=O)[O-])cc1[N+](=O)[O-]` [CB 1954], the IC50 (Giardia WB) was 120 nM, the “Giardia WB Efficacy” value (Giardia WB; percent reduction in ATP levels compared with 38.3 mM Mnz at maximal compound concentration) was 96.4% and the IC50 (CHO cells [1]) was over 100000 nM. The “CHO Efficacy” value (CHO cells [3]; percent reduction in ATP levels compared with 38.3 mM camptothecin at maximal compound concentration) was −16.9%.
Molecule `COC(COC(N)=O)C1=C(N2CC2)C(=O)C(C)=C(N2CC2)C1=O` (stereo not drawn) [Carboquone] has an Emax (Giardia WB; [4]) of 97.4%, an IC50 (Giardia WB; Giardia) of 183 nM and an IC50 (CHO cells [1]; Cricetulus griseus, CHO) of 580 nM. It also gave an MBC [2] of 1.54 µM (≈ 0.495 µg/mL) and an Emax (CHO cells [3]) of 98.4%.
Molecule `COC(=O)[C@H]1[C@H]2C[C@@H]3c4[nH]c5ccccc5c4CCN3C[C@H]2C[C@@H](OC(=O)c2cc(OC)c(OC)c(OC)c2)[C@@H]1OC` [Deserpidine] has an Emax (Giardia WB; [4]) of 94.5%, an IC50 (Giardia WB; Giardia) of 1630 nM and an IC50 (CHO cells [1]; Cricetulus griseus, CHO) of 280 nM. The IC50 (G. lamblia GS isolate) was 283 nM, the MBC [2] was 1.54 µM (≈ 0.891 µg/mL) and the Emax (CHO cells [3]) was 13%.
In the case of `O=[N+]([O-])c1ccc(OC2OC(CO)C(O)C(O)C2F)c([N+](=O)[O-])c1` (stereo not drawn) [Dinitroph-dfgp], the Emax (Giardia WB; [4]) is reported as 44.2%, the IC50 (Giardia WB; Giardia) is reported as 43400 nM and the IC50 (CHO cells [1]; Cricetulus griseus, CHO) is reported as over 100000 nM. For the same molecule, the Emax (CHO cells [3]) was -8%.
`c1ccc2c(c1)[I+]c1ccccc1-2` [Diphenylene- iodonium chloride, diphenyleneiodonium chloride] gave an Emax (Giardia WB; [4]) of 96%, an IC50 (Giardia WB; Giardia) of 259 nM and an IC50 (CHO cells [1]; Cricetulus griseus, CHO) of 2060 nM. It also gave an Emax (CHO cells [3]) of 95.9%.
For `CCN(CC)C(=S)SSC(=S)N(CC)CC` [Disulfiram], the Emax (Giardia WB; [4]) was 95%, the IC50 (Giardia WB; Giardia) was 6500 nM and the IC50 (CHO cells [1]; Cricetulus griseus, CHO) was 200 nM. The Emax (CHO cells [3]) was 53.6%.
`COc1cc2c(cc1O)CCN[C@]21CS[C@H]2c3c(OC(C)=O)c(C)c4c(c3[C@H](COC1=O)N1C2[C@H]2c3c(cc(C)c(OC)c3O)C[C@@H]([C@@H]1O)N2C)OCO4` (stereo partly drawn) [Ecteinascidin 743] showed an Emax (Giardia WB; [4]) of 95.9%, an IC50 (Giardia WB; Giardia) of 6.51 nM and an IC50 (CHO cells [1]; Cricetulus griseus, CHO) of 50 nM. For the same molecule, the Emax (CHO cells [3]) was 97.6%.
Molecule `CC(=O)[C@]1(O)Cc2c(O)c3c(c(O)c2[C@@H](O[C@H]2C[C@H](N)[C@H](O)[C@H](C)O2)C1)C(=O)c1ccccc1C3=O` [Idarubicin HCl] has an Emax (Giardia WB; [4]) of 94.1%, an IC50 (Giardia WB; Giardia) of 3260 nM and an IC50 (CHO cells [1]; Cricetulus griseus, CHO) of 200 nM. The MBC [2] was over 41.7 µM and the Emax (CHO cells [3]) was 88.7%.
Molecule `O=C1c2c(O)ccc(O)c2C(=O)c2c(NCCNCCO)ccc(NCCNCCO)c21` [Mitoxantrone] has an Emax (Giardia WB; [4]) of 87.5%, an IC50 (Giardia WB; Giardia) of 8190 nM and an IC50 (CHO cells [1]; Cricetulus griseus, CHO) of 5800 nM. For the same molecule, the MBC [2] was over 41.7 µM and the Emax (CHO cells [3]) was 95.8%.
